Experimental data reported in ChEMBL document CHEMBL1201862, “PubChem BioAssay data set” (2004).
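1) Cells in 96-well plates. 2) Compound, 48 h, 5 concentrations. 3) Linear interpolation between surrounding doses. 4) Unreached endpoint = highest concentration. Here, GI50 denotes the concentration required for 50% inhibition of growth.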 Calls of active or inactive are those of the source. Cut-off read from the data, not from the text of the source: active = GI50 up to about 1.1 µM and inactive = higher.

Key:
Test in all cases: DTP human tumour cell line panel, 48 h
[1] = test system: NCI-H23
[2] = test system: OVCAR-4
[3] = test system: NCI-H460
[4] = test system: HCT-116
[5] = test system: HT-29
[6] = test system: OVCAR-3
[7] = test system: 786-0
[8] = test system: KM12
[9] = test system: A549
[10] = test system: CAKI-1
[11] = test system: SK-MEL-2
[12] = test system: LOX IMVI
[13] = test system: T47D
[14] = test system: CCRF-CEM
[15] = test system: K562
[16] = test system: SF-295
[17] = test system: Malme-3M
[18] = test system: SF-268
[19] = test system: SK-MEL-28
[20] = test system: COLO 205
[21] = test system: RPMI-8226
[22] = test system: BT-549
[23] = test system: HL-60
[24] = test system: HCT-15
[25] = test system: NCI-H522
[26] = test system: SK-OV-3
[27] = test system: UACC-62
[28] = test system: TK-10
[29] = test system: OVCAR-5
[30] = test system: MCF7
[31] = test system: MOLT-4
[32] = test system: HCC 2998
[33] = test system: M14
[34] = test system: PC-3
[35] = test system: EKVX
[36] = test system: SW-620
[37] = test system: UACC-257
[38] = test system: SNB-19
[39] = test system: MDA-MB-231
[40] = test system: SN12C
[41] = test system: UO-31
[42] = test system: MDA-N
[43] = test system: NCI-H226
[44] = test system: ACHN
[45] = test system: RXF 393
[46] = test system: NCI/ADR-RES
[47] = test system: MDA-MB-435
[48] = test system: U-251
[49] = test system: SK-MEL-5
[50] = test system: IGROV-1
[51] = test system: OVCAR-8
[52] = test system: SR
[53] = test system: DU-145
[54] = test system: Hs-578T
[55] = test system: HOP-62
[56] = test system: SNB-75
[57] = test system: SF-539
[58] = test system: HOP-92
[59] = test system: A498

CN(C)CCc1ccnc2nc(-c3ccc4ccccc4c3)cn12
GI50 [1]: 20.4 µM (inactive) | GI50 [2]: 27.5 µM (inactive) | GI50 [3]: 14.7 µM (inactive) | GI50 [4]: 31.7 µM (inactive) | GI50 [5]: 17.8 µM (inactive) | GI50 [6]: 25.8 µM (inactive) | GI50 [7]: 25 µM (inactive) | GI50 [8]: 18.1 µM (inactive) | GI50 [9]: > 100 µM (inactive) | GI50 [10]: 35.2 µM (inactive) | GI50 [11]: > 100 µM (inactive) | GI50 [12]: 25 µM (inactive) | GI50 [13]: 34.9 µM (inactive) | GI50 [14]: 33.3 µM (inactive) | GI50 [15]: 79.8 µM (inactive) | GI50 [16]: 88.7 µM (inactive) | GI50 [17]: 96.4 µM (inactive) | GI50 [18]: 23 µM (inactive) | GI50 [19]: 45.6 µM (inactive) | GI50 [20]: 33.3 µM (inactive) | GI50 [21]: > 100 µM (inactive) | GI50 [22]: 23.4 µM (inactive) | GI50 [23]: 36.9 µM (inactive) | GI50 [24]: 34.6 µM | GI50 [25]: 12 µM (inactive) | GI50 [26]: 38.5 µM (inactive) | GI50 [27]: 44.5 µM (inactive) | GI50 [28]: 15.7 µM (inactive) | GI50 [29]: 47.1 µM (inactive) | GI50 [30]: 34.7 µM (inactive) | GI50 [31]: 35.2 µM (inactive) | GI50 [32]: 18.5 µM (inactive) | GI50 [33]: 47.8 µM (inactive) | GI50 [34]: 33.7 µM (inactive) | GI50 [35]: 38 µM (inactive) | GI50 [36]: 21.4 µM (inactive) | GI50 [37]: 36.3 µM (inactive) | GI50 [38]: 69.2 µM (inactive) | GI50 [39]: 28.8 µM (inactive) | GI50 [40]: 26.8 µM (inactive) | GI50 [41]: 52.6 µM (inactive) | GI50 [42]: 29.6 µM (inactive) | GI50 [43]: 27.8 µM (inactive) | GI50 [44]: 29.4 µM (inactive) | GI50 [45]: 30.9 µM (inactive) | GI50 [46]: 26.2 µM (inactive) | GI50 [47]: 33.3 µM (inactive) | GI50 [48]: 38.2 µM (inactive) | GI50 [49]: 34.7 µM (inactive) | GI50 [50]: 23.9 µM (inactive) | GI50 [51]: 26.9 µM (inactive) | GI50 [52]: 57.5 µM (inactive) | GI50 [53]: 45.2 µM (inactive) | GI50 [54]: 17.8 µM (inactive) | GI50 [55]: 56.9 µM (inactive)

CCN(CC)C(=O)Cn1c(-c2ccccc2)cc2ccccc21
GI50 [1]: 44.4 µM (inactive) | GI50 [2]: 66.8 µM (inactive) | GI50 [3]: 36.4 µM (inactive) | GI50 [4]: 24.8 µM (inactive) | GI50 [5]: 29 µM (inactive) | GI50 [6]: > 100 µM (inactive) | GI50 [7]: 45.1 µM (inactive) | GI50 [8]: 38.3 µM (inactive) | GI50 [9]: 33 µM (inactive) | GI50 [11]: 72.8 µM (inactive) | GI50 [12]: 25.4 µM (inactive) | GI50 [13]: 42 µM (inactive) | GI50 [14]: 24.3 µM (inactive) | GI50 [15]: 25.8 µM (inactive) | GI50 [56]: 41.5 µM (inactive) | GI50 [17]: 80.4 µM (inactive) | GI50 [18]: 29 µM (inactive) | GI50 [19]: 52.6 µM (inactive) | GI50 [20]: 16.6 µM (inactive) | GI50 [21]: > 10 µM (inactive) | GI50 [22]: 33 µM (inactive) | GI50 [23]: 47.4 µM (inactive) | GI50 [24]: 43.3 µM | GI50 [25]: 28 µM (inactive) | GI50 [26]: 40.8 µM (inactive) | GI50 [27]: > 10 µM (inactive) | GI50 [28]: 34.9 µM (inactive) | GI50 [29]: 43.1 µM (inactive) | GI50 [30]: 33.5 µM (inactive) | GI50 [31]: 14.5 µM (inactive) | GI50 [32]: 78.7 µM (inactive) | GI50 [33]: 87.3 µM (inactive) | GI50 [34]: 22.9 µM (inactive) | GI50 [35]: 16.6 µM (inactive) | GI50 [36]: 43.2 µM (inactive) | GI50 [37]: 41.9 µM (inactive) | GI50 [38]: 42.8 µM (inactive) | GI50 [39]: 37.5 µM (inactive) | GI50 [40]: 97.3 µM (inactive) | GI50 [57]: 34.4 µM (inactive) | GI50 [41]: 17.5 µM (inactive) | GI50 [42]: 28.1 µM (inactive) | GI50 [43]: 42.7 µM (inactive) | GI50 [44]: 30.9 µM (inactive) | GI50 [45]: 22.9 µM (inactive) | GI50 [46]: 23.4 µM (inactive) | GI50 [47]: 34.1 µM (inactive) | GI50 [48]: 40.1 µM (inactive) | GI50 [49]: 15.6 µM (inactive) | GI50 [50]: 60.8 µM (inactive) | GI50 [51]: 35.9 µM (inactive) | GI50 [52]: 32.5 µM (inactive) | GI50 [53]: 56 µM (inactive) | GI50 [54]: 33.5 µM (inactive) | GI50 [55]: 57.5 µM (inactive) | GI50 [58]: 27.7 µM (inactive)

CC(=O)Nc1ccc(/C=C/[N+](=O)[O-])cc1
GI50 [1]: 3.09 µM (inactive) | GI50 [2]: 2.9 µM (inactive) | GI50 [3]: 7.21 µM (inactive) | GI50 [4]: 2.42 µM (inactive) | GI50 [5]: 1.85 µM (inactive) | GI50 [6]: 2.98 µM (inactive) | GI50 [7]: 2.61 µM (inactive) | GI50 [8]: 5.68 µM (inactive) | GI50 [9]: 4.47 µM (inactive) | GI50 [10]: 0.573 µM (active) | GI50 [11]: 9.66 µM (inactive) | GI50 [12]: 1.71 µM (inactive) | GI50 [13]: 4.1 µM (inactive) | GI50 [14]: 2.33 µM (inactive) | GI50 [15]: 2 µM (inactive) | GI50 [56]: 1.5 µM (inactive) | GI50 [16]: 5.71 µM (inactive) | GI50 [17]: 3.29 µM (inactive) | GI50 [18]: 4.67 µM (inactive) | GI50 [19]: 1.83 µM (inactive) | GI50 [20]: 2.53 µM (inactive) | GI50 [21]: 1.66 µM (inactive) | GI50 [22]: 6.15 µM (inactive) | GI50 [23]: 2.84 µM (inactive) | GI50 [24]: 2.33 µM | GI50 [25]: 0.24 µM (active) | GI50 [26]: 8.93 µM (inactive) | GI50 [27]: 2 µM (inactive) | GI50 [28]: 1.75 µM (inactive) | GI50 [29]: 2.58 µM (inactive) | GI50 [30]: 2.79 µM (inactive) | GI50 [31]: 1.96 µM (inactive) | GI50 [33]: 2.59 µM (inactive) | GI50 [34]: 5.71 µM (inactive) | GI50 [35]: 3.13 µM (inactive) | GI50 [36]: 2.64 µM (inactive) | GI50 [37]: 5.21 µM (inactive) | GI50 [38]: 7.19 µM (inactive) | GI50 [39]: 1.81 µM (inactive) | GI50 [40]: 3.37 µM (inactive) | GI50 [57]: 2.37 µM (inactive) | GI50 [41]: 2 µM (inactive) | GI50 [42]: 2.24 µM (inactive) | GI50 [43]: 1.67 µM (inactive) | GI50 [44]: 3.42 µM (inactive) | GI50 [59]: 5.19 µM (inactive) | GI50 [45]: 2.07 µM (inactive) | GI50 [46]: 8.09 µM (inactive) | GI50 [47]: 2.82 µM (inactive) | GI50 [48]: 3.15 µM (inactive) | GI50 [49]: 2.36 µM (inactive) | GI50 [50]: 2.37 µM (inactive) | GI50 [51]: 6.07 µM (inactive) | GI50 [52]: 0.404 µM (active) | GI50 [53]: 5.11 µM (inactive) | GI50 [54]: 4.85 µM (inactive) | GI50 [55]: 7.96 µM (inactive) | GI50 [58]: 4.14 µM (inactive)
